Experimental data from PMC5640650, “NatD promotes lung cancer progression by preventing histone H4 serine phosphorylation to activate Slug expression” (Nature Communications, 2017).

Key:
H1299 cells = test: TGF-β1-induced EMT experiment (morphology), H1299 cells; type: cell-based, human; details: Scr H1299 cells, TGF-β1
From the text: Fig. 4 Silencing NatD suppresses cancer cell EMT by downregulating Slug. a Representative phase contrast images of Scr and NatD-KD H1299 cells treated with TGF-β1. Data are representative of three independent experiments. Scale bar, 100 μm. b Quantitative real-time PCR analysis of mRNA levels of indicated key EMT-related genes in Scr and NatD-KD H1299 cells normalized to GAPDH in the absence or presence of TGF-β1. Results are shown as mean ± s.d. of three independent experiments. Two-tailed Student’s t-test was used. **P < 0.01 or *P < 0.05 compared with the indicated control. c Western blot analysis of indicated protein levels in Scr and NatD-KD H1299 cells in the absence or presence of TGF-β1. GAPDH served as a loading control. Data are representative of three independent experiments. d Immunofluorescence analysis of Scr and NatD-KD H1299 cells in the absence or presence of TGF-β1 stained for E-cadherin and N-cadherin. […] (bottom panels) Cells were counted in at least four random microscope fields (×100 magnification) for the corresponding assays; migration and invasion are expressed as a percentage of control. […] Two-tailed Student’s t-test was used. **P < 0.01 compared with the indicated control. g Quantitative real-time PCR analysis of the mRNA levels of NatD and indicated key EMT-related genes (normalized to GAPDH) in Scr cells, NatD-KD cells, and NatD-KD + Slug cells. […]

CK2α = test: Slug expression after CK2α RNA interference, H1299 cells; type: cell-based, human; details: Scr and NatD-KD H1299 cells, particularly in NatD-KD cells
From the text: Fig. 7 Downregulation of Nt-acetylation of histone H4 facilitates nuclear accumulation of CK2α and its binding to histone H4 in lung cancer cells. a Representative confocal scanning images of CK2α localization in Scr and H1299 cells (left panel). The staining intensity of CK2α was quantified by software ImageJ from NIH (right diagram). Scale bars, 5 μm. […] Equal peptide biotinylated on C terminus is shown by dot blot analysis with streptavidin (middle panel). […] IgG served as a negative control. Results are shown as mean ± s.d. from three independent experiments; two-tailed Student’s t-test, **P < 0.01 compared with the indicated control. g Quantitative real-time PCR analysis of mRNA levels of CK2α and Slug normalized to GAPDH in Scr and NatD-KD H1299 cells in the absence or presence of siRNA to CK2α. NC, siRNA mimics negative control. Data are mean ± s.d. of three independent experiments; Student’s t-test, *P < 0.05, **P < 0.01 compared with the indicated control. h Western blot analysis of indicated proteins from Scr and NatD-KD H1299 cells in the absence or presence of siRNA to CK2α.
siRNA against CK2α and negative control (NC) siRNA were synthesized by RiboBio Co. Ltd (Gaungzhou, China).

Row | Substance | morphology on TGF-β1 treatment, Scr cells (H1299 cells) | Slug expression after CK2α knockdown (CK2α) | Slug expression after CK2α knockdown (CK2α; listed as knockdown of CK2α by RNA interference)
1 | TGF-β1: TGF-β1 used to induce EMT [reference compound] | developed a spindle-like appearance and mesenchymal morphology | – | –
2 | CK2α siRNA: siRNA against CK2α: 5′-GAAUUAGAUCCACGUUUCA-3′ (chemistry not given here) | – | greatly activated | significantly increased
